Measurements from patent US20150031668A1, “CHROMAN DERIVATIVES AS TRPM8 INHIBITORS” (AMGEN INC., priority 2013, published 2015).

Target: T1, human TRPM8 (Homo sapiens, UniProt Q7Z2W7)
T1 construct: expressed in transfected cells; host or cells: Chinese hamster ovary (CHO) cells, T-REx tetracycline-inducible expression system (Invitrogen); co-transfected with pcDNA3.1 aequorin
Assay: Luminescence readout assay for measuring intracellular calcium (aequorin, CHO cells expressing human TRPM8; icilin, L-menthol or cold activation)
Type: cell-based
Conditions: CHO cells expressing human TRPM8, icilin activation (1 μM), aequorin luminescence; read-out: hTRPM8 IC50
In short: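 Activation was by 1 μM icilin, 100 μM L-menthol (test compound 2.5 min ahead) or cold buffer below 10° C (compound 1 min ahead). Calcium rise measured as aequorin luminescence in CHO cells with tetracycline-inducible human TRPM8.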

T1 sequence (Q7Z2W7 whole entry): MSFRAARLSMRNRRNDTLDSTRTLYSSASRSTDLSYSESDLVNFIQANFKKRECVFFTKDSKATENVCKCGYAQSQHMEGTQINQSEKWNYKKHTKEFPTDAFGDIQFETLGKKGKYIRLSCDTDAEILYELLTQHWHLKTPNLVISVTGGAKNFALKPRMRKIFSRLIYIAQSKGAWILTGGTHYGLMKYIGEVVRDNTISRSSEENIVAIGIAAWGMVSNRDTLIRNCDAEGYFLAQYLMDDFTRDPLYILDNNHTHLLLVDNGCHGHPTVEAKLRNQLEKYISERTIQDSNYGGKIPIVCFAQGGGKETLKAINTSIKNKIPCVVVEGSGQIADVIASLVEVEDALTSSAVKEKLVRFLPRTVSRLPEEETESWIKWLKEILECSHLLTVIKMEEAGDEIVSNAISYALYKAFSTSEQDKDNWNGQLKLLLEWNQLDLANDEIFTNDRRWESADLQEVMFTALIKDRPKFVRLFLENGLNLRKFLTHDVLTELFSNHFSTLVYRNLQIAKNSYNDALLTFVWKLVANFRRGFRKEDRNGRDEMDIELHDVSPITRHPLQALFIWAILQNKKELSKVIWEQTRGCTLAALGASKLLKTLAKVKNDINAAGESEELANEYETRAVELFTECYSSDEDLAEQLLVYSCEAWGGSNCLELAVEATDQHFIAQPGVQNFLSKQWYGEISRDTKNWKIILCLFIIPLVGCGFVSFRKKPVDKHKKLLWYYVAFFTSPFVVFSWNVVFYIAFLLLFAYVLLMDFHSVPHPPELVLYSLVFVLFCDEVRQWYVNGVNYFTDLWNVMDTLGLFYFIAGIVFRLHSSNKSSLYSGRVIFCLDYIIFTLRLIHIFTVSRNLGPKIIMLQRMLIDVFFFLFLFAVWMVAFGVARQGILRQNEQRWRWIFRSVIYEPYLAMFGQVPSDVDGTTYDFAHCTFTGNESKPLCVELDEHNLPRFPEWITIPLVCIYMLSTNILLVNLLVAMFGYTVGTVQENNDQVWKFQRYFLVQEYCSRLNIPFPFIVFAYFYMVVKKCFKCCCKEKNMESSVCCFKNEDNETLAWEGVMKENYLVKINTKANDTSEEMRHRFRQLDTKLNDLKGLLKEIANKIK

SMILES	IC50
O=C(Nc1cccc(C(=O)O)c1)N[C@]1(c2ccc(OC(F)(F)F)c(F)c2)CCOc2cccnc21 [Example 107, (S)-3-(3-(4-(3-fluoro-4-(trifluoromethoxy)phenyl)-3,4-dihydro-2H-pyrano[3,2-b]pyridin-4-yl)ureido)benzoic acid]	150 nM
O=C(Nc1ccc(C(=O)O)cc1)N[C@]1(c2ccc(OC(F)(F)F)c(F)c2)CCOc2cccnc21 [Example 108, (S)-4-(3-(4-(3-fluoro-4-(trifluoromethoxy)phenyl)-3,4-dihydro-2H-pyrano[3,2-b]pyridin-4-yl)ureido)benzoic acid]	386 nM
O=C(Nc1ccc(-c2noc(=O)[nH]2)nc1)N[C@]1(c2ccc(OC(F)(F)F)c(F)c2)CCOc2cccnc21 [Example 109, (S)-1-(4-(3-fluoro-4-(trifluoromethoxy)phenyl)-3,4-dihydro-2H-pyrano[3,2-b]pyridin-4-yl)-3-(6-(5-oxo-4,5-dihydro-1,2,4-oxadiazol-3-yl)pyridin-3-yl)urea]	3060 nM
O=C(O)C1CCN(C(=O)N[C@]2(c3ccc(OC(F)(F)F)c(F)c3)CCOc3cccnc32)CC1 [Example 110]	585 nM
N#CCc1ccc([C@@]2(NC(=O)c3ccc(F)cc3)CCOc3cccnc32)cc1 [Example 111, (S)—N-(4-(4-(cyanomethyl)phenyl)-3,4-dihydro-2H-pyrano[3,2-b]pyridin-4-yl)-4-fluorobenzamide]	1520 nM
CS(=O)(=O)c1ccc(-c2ccc([C@@]3(NC(=O)c4ccc(F)cc4)CCOc4cccnc43)cc2)cc1 [Example 119, (S)-4-fluoro-N-(4-(4′-(methylsulfonyl)-[1,1′-biphenyl]-4-yl)-3,4-dihydro-2H-pyrano[3,2-b]pyridin-4-yl)benzamide]	879 nM
CC(=O)Nc1ccc(-c2ccc([C@@]3(NC(=O)c4ccc(F)cc4)CCOc4cccnc43)cc2)cc1 [Example 121, (S)-N-(4-(4′-acetamido-[1,1′-biphenyl]-4-yl)-3,4-dihydro-2H-pyrano[3,2-b]pyridin-4-yl)-4-fluorobenzamide]	1250 nM
O=C(N[C@]1(c2ccc(-c3ccc(F)c(CO)c3)cc2)CCOc2cccnc21)c1ccc(F)cc1 [Example 122, (S)-4-fluoro-N-(4-(4′-fluoro-3′-(hydroxymethyl)-[1,1-biphenyl]-4-yl)-3,4-dihydro-2H-pyrano[3,2-b]pyridin-4-yl)benzamide]	1520 nM
Cc1noc(C)c1-c1ccc([C@@]2(NC(=O)c3ccc(F)cc3)CCOc3cccnc32)cc1 [Example 125, (S)-N-(4-(4-(3,5-dimethylisoxazol-4-yl)phenyl)-3,4-dihydro-2H-pyrano[3,2-b]pyridin-4-yl)-4-fluorobenzamide]	429 nM
COc1ncc(-c2ccc([C@@]3(NC(=O)c4ccc(F)cc4)CCOc4cccnc43)cc2)cn1 [Example 127, (S)-4-fluoro-N-(4-(4-(2-methoxypyrimidin-5-yl)phenyl)-3,4-dihydro-2H-pyrano[3,2-b]pyridin-4-yl)benzamide]	336 nM
CN(C)C(=O)c1cccc(-c2ccc([C@@]3(NC(=O)c4ccc(F)cc4)CCOc4cccnc43)cc2)c1 [Example 129, (S)-4′-(4-(4-fluorobenzamido)-3,4-dihydro-2H-pyrano[3,2-b]pyridin-4-yl)-N,N-dimethyl-[1,1′-biphenyl]-3-carboxamide]	2600 nM
O=C(N[C@]1(c2ccc(-c3ccc(N4CCOCC4)cc3)cc2)CCOc2cccnc21)c1ccc(F)cc1 [Example 133, (S)-4-fluoro-N-(4-(4′-morpholino-[1,1′-biphenyl]-4-yl)-3,4-dihydro-2H-pyrano[3,2-b]pyridin-4-yl)benzamide]	156 nM
COc1ccc(-c2ccc([C@@]3(NC(=O)c4ccc(F)cc4)CCOc4cccnc43)cc2)c(CO)c1 [Example 136, (S)-4-fluoro-N-(4-(2′-(hydroxymethyl)-4′-methoxy-[1,1′-biphenyl]-4-yl)-3,4-dihydro-2H-pyrano[3,2-b]pyridin-4-yl)benzamide]	784 nM
CN(C)C(=O)c1ccc(-c2ccc([C@@]3(NC(=O)c4ccc(F)cc4)CCOc4cccnc43)cc2)cc1 [Example 137, (S)-4′-(4-(4-fluorobcnzamido)-3,4-dihydro-2H-pyrano[3,2-b]pyridin-4-yl)-N,N-dimethyl-[1,1′-biphenyl]-4-carboxamide]	1520 nM
CNC(=O)c1ccc(-c2ccc([C@@]3(NC(=O)c4ccc(F)cc4)CCOc4cccnc43)cc2)cc1 [Example 138, (S)-4′-(4-(4-fluorobenzamido)-3,4-dihydro-2H-pyrano[3,2-b]pyridin-4-yl)-N-methyl-[1,1′-biphenyl]-4-carboxamide]	3160 nM

Results, then the compound that gave them:

IC50	SMILES
233 nM	O=C(N[C@]1(c2ccc(-c3ccccn3)cc2)CCOc2cccnc21)c1ccc(F)cc1 [Example 112, (S)-4-fluoro-N-(4-(4-(pyridin-2-yl)phenyl)-3,4-dihydro-2H-pyrano[3,2-b]pyridin-4-yl)benzamide]
53 nM	O=C(N[C@]1(c2ccc(-c3ccccc3)cc2)CCOc2cccnc21)c1ccc(F)cc1 [Example 113, (S)—N-(4-([1,1′-biphenyl]-4-yl)-3,4-dihydro-2H-pyrano[3,2-b]pyridin-4-yl)-4-fluorobenzamide]
50 nM	O=C(N[C@]1(c2ccc(-c3ccc(F)cc3)cc2)CCOc2cccnc21)c1ccc(F)cc1 [Example 114, (S)-4-fluoro-N-(4-(4′-fluoro-[1,1′-biphenyl]-4-yl)-3,4-dihydro-2H-pyrano[3,2-b]pyridin-4-yl)benzamide]
341 nM	O=C(N[C@]1(c2ccc(-c3cccnc3)cc2)CCOc2cccnc21)c1ccc(F)cc1 [Example 115, (S)-4-fluoro-N-(4-(4-(pyridin-3-yl)phenyl)-3,4-dihydro-2H-pyrano[3,2-b]pyridin-4-yl)benzamide]
284 nM	O=C(N[C@]1(c2ccc(-c3ccncc3)cc2)CCOc2cccnc21)c1ccc(F)cc1 [Example 116, (S)-4-fluoro-N-(4-(4-(pyridin-4-yl)phenyl)-3,4-dihydro-2H-pyrano[3,2-b]pyridin-4-yl)benzamide]
73.7 nM	CCOc1cnc(-c2ccc([C@@]3(NC(=O)c4ccc(F)cc4)CCOc4cccnc43)cc2)cn1 [Example 117, (S)-N-(4-(4-(5-ethoxypyrazin-2-yl)phenyl)-3,4-dihydro-2H-pyrano[3,2-b]pyridin-4-yl)-4-fluorobenzamide]
2170 nM	O=C(N[C@]1(c2ccc(-c3cccc(CO)c3)cc2)CCOc2cccnc21)c1ccc(F)cc1 [Example 118, (S)-4-fluoro-N-(4-(3′-(hydroxymethyl)-[1,1′-biphenyl]-4-yl)-3,4-dihydro-2H-pyrano[3,2-b]pyridin-4-yl)benzamide]
524 nM	O=C(N[C@]1(c2ccc(-c3ccccc3O)cc2)CCOc2cccnc21)c1ccc(F)cc1 [Example 120, (S)-4-fluoro-N-(4-(2′-hydroxy-[1,1′-biphenyl]-4-yl)-3,4-dihydro-2H-pyrano[3,2-b]pyridin-4-yl)benzamide]
3560 nM	NC(=O)c1cc(-c2ccc([C@@]3(NC(=O)c4ccc(F)cc4)CCOc4cccnc43)cc2)ccc1Cl [Example 123, (S)-4-chloro-4′-(4-(4-fluorobenzamido)-3,4-dihydro-2H-pyrano[3,2-b]pyridin-4-yl)-[1,1′-biphenyl]-3-carboxamide]
1410 nM	O=C(N[C@]1(c2ccc(-c3cncnc3)cc2)CCOc2cccnc21)c1ccc(F)cc1 [Example 124, (S)-4-fluoro-N-(4-(4-(pyrimidin-5-yl)phenyl)-3,4-dihydro-2H-pyrano[3,2-b]pyridin-4-yl)benzamide]
908 nM	Nc1cccc(-c2ccc([C@@]3(NC(=O)c4ccc(F)cc4)CCOc4cccnc43)cc2)c1 [Example 126, (S)-N-(4-(3′-amino-[1,1′-biphenyl]-4-yl)-3,4-dihydro-2H-pyrano[3,2-b]pyridin-4-yl)-4-fluorobenzamide]
501 nM	O=C(N[C@]1(c2ccc(-c3ccccc3CO)cc2)CCOc2cccnc21)c1ccc(F)cc1 [Example 128, (S)-4-fluoro-N-(4-(2′-(hydroxymethyl)-[1,1′-biphenyl]-4-yl)-3,4-dihydro-2H-pyrano[3,2-b]pyridin-4-yl)benzamide]
1000 nM	COc1ccncc1-c1ccc([C@@]2(NC(=O)c3ccc(F)cc3)CCOc3cccnc32)cc1 [Example 130, (S)-4-fluoro-N-(4-(4-(4-methoxypyridin-3-yl)phenyl)-3,4-dihydro-2H-pyrano[3,2-b]pyridin-4-yl)benzamide]
113 nM	COc1ncccc1-c1ccc([C@@]2(NC(=O)c3ccc(F)cc3)CCOc3cccnc32)cc1 [Example 131, (S)-4-fluoro-N-(4-(4-(2-methoxypyridin-3-yl)phenyl)-3,4-dihydro-2H-pyrano[3,2-b]pyridin-4-yl)benzamide]
216 nM	Cc1ccncc1-c1ccc([C@@]2(NC(=O)c3ccc(F)cc3)CCOc3cccnc32)cc1 [Example 132, (S)-4-fluoro-N-(4-(4-(4-methylpyridin-3-yl)phenyl)-3,4-dihydro-2H-pyrano[3,2-b]pyridin-4-yl)benzamide]
320 nM	O=C(N[C@]1(c2ccc(-c3cccc(F)c3O)cc2)CCOc2cccnc21)c1ccc(F)cc1 [Example 134, (S)-4-fluoro-N-(4-(3′-fluoro-2′-hydroxy-[1,1′-biphenyl]-4-yl)-3,4-dihydro-2H-pyrano[3,2-b]pyridin-4-yl)benzamide]
113 nM	COc1cccc(-c2ccc([C@@]3(NC(=O)c4ccc(F)cc4)CCOc4cccnc43)cc2)c1O [Example 135, (S)-4-fluoro-N-(4-(2′-hydroxy-3′-methoxy-[1,1′-biphenyl]-4-yl)-3,4-dihydro-2H-pyrano[3,2-b]pyridin-4-yl)benzamide]
122 nM	O=C(N[C@]1(c2ccc(-c3cnc(Cl)nc3)cc2)CCOc2cccnc21)c1ccc(F)cc1 [Example 139, (S)-N-(4-(4-(2-chloropyrirnidin-5-yl)phenyl)-3,4-dihydro-2H-pyrano[3,2-b]pyridin-4-yl)-4-fluorobenzamide]
